This passage reports IC50 results from patent US10329295B2, “Pyrrolotriazine inhibitors of IRAK4 activity” (MERCK SHARP & DOHME CORP., priority 2015, dated 2019).

Structures are written as SMILES. Structures can show the parent of a compound that is named as a salt.

GST tagged IRAK4, sequence (Q9NWZ3 whole entry): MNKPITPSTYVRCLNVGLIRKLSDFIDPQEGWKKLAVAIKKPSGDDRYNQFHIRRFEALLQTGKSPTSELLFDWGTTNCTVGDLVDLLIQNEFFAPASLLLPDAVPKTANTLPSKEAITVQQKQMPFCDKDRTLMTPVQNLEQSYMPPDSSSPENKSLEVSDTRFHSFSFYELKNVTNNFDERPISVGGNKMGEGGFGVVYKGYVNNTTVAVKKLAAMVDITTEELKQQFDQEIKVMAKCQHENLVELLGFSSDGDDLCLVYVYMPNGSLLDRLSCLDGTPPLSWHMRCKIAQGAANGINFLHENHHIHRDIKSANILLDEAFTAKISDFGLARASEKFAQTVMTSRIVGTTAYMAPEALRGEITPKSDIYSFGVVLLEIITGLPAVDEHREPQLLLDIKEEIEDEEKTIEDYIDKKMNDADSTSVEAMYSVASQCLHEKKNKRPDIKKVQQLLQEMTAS

The test addresses GST tagged IRAK4 (Homo sapiens (Human), UniProt Q9NWZ3). The test can be described thus: IRAK4 Kinase Assay (IMAP fluorescence polarization). It counts as biochemical. Conditions: 0.5 nM GST tagged IRAK4, 100 μM ATP, 30 minutes at 25° C. The procedure, abridged: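 Reactions contained 0.5 nM GST-IRAK4, 100 nM fluorescent peptide substrate and 100 μM ATP in 10 mM Tris-HCl pH 7.2 with 1 mM MgCl2, and were started with ATP. After 30 minutes at 25° C they were stopped with IMAP reagent. Substrate phosphorylation was read as the change in fluorescence polarization.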
In general terms: Polarisation of emitted light reports the rotation of a fluorescent probe.
What is called IC50 is the point on the concentration scale where inhibition reaches its midpoint. Read a low IC50 as higher potency. Turning to `Cn1cc(NC(=O)c2ccc3cnc(N4CCC[C@@H](N)C4)nn23)c(C(F)F)n1` [Example 18, 2-[(3R)-3-aminopiperidin-1-yl]-N-[3-(difluoromethyl)-1-methyl-1H-pyrazol-4-yl]pyrrolo[2,1-f][1,2,4]triazine-7-carboxamide trifluoroacetate], the IC50 is 0.5 nM.

`N#Cc1sccc1NC(=O)c1ccc2cnc(N3CCC[C@H](N)C3)nn12` [Example 152, 2-[(3S)-3-aminopiperidin-1-yl]-N-(2-cyanothiophen-3-yl)pyrrolo[2,1-f][1,2,4]triazine-7-carboxamide trifluoroacetate] came in with an IC50 of 7 nM. The same measure for `Cn1cc(NC(=O)c2ccc3cnc(N[C@@H]4CNC[C@@H](F)C4)nn23)c(C(F)(F)F)n1` [Example 161, 2-{[(3S,5S)-5-fluoropiperidin-3-yl]amino}-N-[1-methyl-3-(trifluoromethyl)-1H-pyrazol-4-yl]pyrrolo[2,1-f][1,2,4]triazine-7-carboxamide trifluoroacetate]: 4 nM; for `Cn1cc(NC(=O)c2ccc3cnc(N4C[C@H]5CN[C@H](C5)C4)nn23)c(C(F)F)n1` (single isomer, unassigned) [Example 104, 2-[(1S,5S)- or (1R,5R)-3,6-diazabicyclo[3.2.1]oct-3-yl]-N-[3-(difluoromethyl)-1-methyl-1H-pyrazol-4-yl]pyrrolo[2,1-f][1,2,4]triazine-7-carboxamide]: 28 nM. The figure for `N#Cc1cscc1NC(=O)c1ccc2cnc(N3CCCNCC3)nn12` [Example 12, N-(4-cyanothiophen-3-yl)-2-(1,4-diazepan-1-yl)pyrrolo[2,1-f][1,2,4]triazine-7-carboxamide trifluoroacetate] is 365 nM; for `N#Cc1ccccc1NC(=O)c1ccc2cnc(N[C@@H]3CCCC(F)(F)[C@@H]3N)nn12` [Example 136, 2-{[(1R,2R)-2-amino-3,3-difluorocyclohexyl]amino}-N-(2-cyanophenyl)pyrrolo[2,1-f][1,2,4]triazine-7-carboxamide trifluoroacetate] it is 860 nM; for `Cn1cc(NC(=O)c2ccc3cnc(N[C@H]4CCC(F)(F)C[C@H]4N)nn23)c(C(F)F)n1` (single isomer, unassigned) [Example 129, 2-{[(1S,2R)- or (1R,2S)-2-amino-4,4-difluorocyclohexyl]amino}-N-[3-(difluoromethyl)-1-methyl-1H-pyrazol-4-yl]pyrrolo[2,1-f][1,2,4]triazine-7-carboxamide] it is 3650 nM. `Cn1cc(NC(=O)c2ccc3cnc(N[C@H]4CCCCNC4)nn23)c(C(F)(F)F)n1` (single isomer, unassigned) [Example 69, 2-[(3S)- or (3R)-azepan-3-ylamino]-N-[1-methyl-3-(trifluoromethyl)-1H-pyrazol-4-yl]pyrrolo[2,1-f][1,2,4]triazine-7-carboxamide trifluoroacetate] displayed an IC50 of 5 nM.

The compound `Cn1cc(NC(=O)c2ccc3cnc(N4CCNCC5(CC5)C4)nn23)c(C(F)(F)F)n1` [Example 9, 2-(5,8-diazaspiro[2.6]non-5-yl)-N-[1-methyl-3-(trifluoromethyl)-1H-pyrazol-4-yl]pyrrolo[2,1-f][1,2,4]triazine-7-carboxamide trifluoroacetate] showed an IC50 of 7 nM. The figure for `N#Cc1cscc1NC(=O)c1ccc2cnc(N[C@@H]3CCCC[C@@H]3N)nn12` [Example 13, 2-{[(1R,2S)-2-aminocyclohexyl]amino}-N-(4-cyanothiophen-3-yl)pyrrolo[2,1-f][1,2,4]triazine-7-carboxamide trifluoroacetate] is 4 nM; for `N#Cc1sccc1NC(=O)c1ccc2cnc(N3CCCNCC3)nn12` [Example 43, N-(2-cyanothiophen-3-yl)-2-(1,4-diazepan-1-yl)pyrrolo[2,1-f][1,2,4]triazine-7-carboxamide trifluoroacetate] it is 1040 nM. The same measure for `N#Cc1ccccc1NC(=O)c1ccc2cnc(N[C@@H]3CCCC[C@@H]3N)nn12` [Example 50, 2-{[(1R,2S)-2-aminocyclohexyl]amino}-N-(2-cyanophenyl)pyrrolo[2,1-f][1,2,4]triazine-7-carboxamide trifluoroacetate]: 11 nM; for `N[C@@H]1[C@H](Nc2ncc3ccc(C(=O)Nc4ccccc4Br)n3n2)CCCC1(F)F` [Example 106, 2-{[(1R,2R)-2-amino-3,3-difluorocyclohexyl]amino}-N-(2-bromophenyl)pyrrolo[2,1-f][1,2,4]triazine-7-carboxamide trifluoroacetate]: 5810 nM.

Turning to `Cn1ncc(NC(=O)c2ccc3cnc(N[C@@H]4CCCC[C@@H]4N)nn23)c1C(F)(F)F` [Example 70, 2-{[(1R,2S)-2-aminocyclohexyl]amino}-N-[1-methyl-5-(trifluoromethyl)-1H-pyrazol-4-yl]pyrrolo[2,1-f][1,2,4]triazine-7-carboxamide trifluoroacetate], it took 26 nM to reach half-maximal inhibition (IC50). The figure for `N#Cc1ccccc1NC(=O)c1ccc2cnc(N3C[C@H]4CC[C@@H]3CN4)nn12` (single isomer, unassigned) [Example 75, N-(2-cyanophenyl)-2-[(1S,4S)- or (1R,4R)-2,5-diazabicyclo[2.2.2]oct-2-yl]pyrrolo[2,1-f][1,2,4]triazine-7-carboxamide trifluoroacetate] is 4000 nM.

Take `Cn1cc(NC(=O)c2ccc3cnc(N[C@@H]4CCCC[C@@H]4O)nn23)c(C#N)n1` [Example 122, N-(3-cyano-1-methyl-1H-pyrazol-4-yl)-2-{[(1R,2S)-2-hydroxycyclohexyl]amino}-pyrrolo[2,1-f][1,2,4]triazine-7-carboxamide trifluoroacetate]: the IC50 was determined as 20 nM. The same measure for `O=C(Nc1ccccc1C(F)(F)F)c1ccc2cnc(N3C[C@@H]4CC[C@H]3CN4)nn12` (single isomer, unassigned) [Example 78, 2-[(1S,4S)- or (1R,4R)-2,5-diazabicyclo[2.2.2]oct-2-yl]-N-[2-(trifluoromethyl)phenyl]-pyrrolo[2,1-f][1,2,4]triazine-7-carboxamide trifluoroacetate]: 1450 nM; for `Cn1cc(NC(=O)c2ccc3cnc(N4C[C@@H]5CN[C@@H](C5)C4)nn23)c(C(F)(F)F)n1` (single isomer, unassigned) [Example 100, 2-[(1S,5S)- or (1R,5R)-3,6-diazabicyclo[3.2.1]oct-3-yl]-N-[1-methyl-3-(trifluoromethyl)-1H-pyrazol-4-yl]pyrrolo[2,1-f][1,2,4]triazine-7-carboxamide]: 64 nM; for `Cn1cc(NC(=O)c2ccc3cnc(N[C@@H]4CCCCNC4)nn23)c(C(F)(F)F)n1` (single isomer, unassigned) [Example 72, 2-[(3S)- or (3R)-azepan-3-ylamino]-N-[1-methyl-3-(trifluoromethyl)-1H-pyrazol-4-yl]pyrrolo[2,1-f][1,2,4]triazine-7-carboxamide trifluoroacetate]: 4 nM. The compound `Cn1cc(NC(=O)c2ccc3cnc(N[C@@H]4CCC(F)(F)C[C@@H]4N)nn23)c(C(F)F)n1` (single isomer, unassigned) [Example 139, 2-{[(1S,2R)- or (1R,2S)-2-amino-4,4-difluorocyclohexyl]amino}-N-[3-(difluoromethyl)-1-methyl-1H-pyrazol-4-yl]pyrrolo[2,1-f][1,2,4]triazine-7-carboxamide] had an IC50 of 3 nM.

The compound `N[C@H]1CCCC[C@H]1Nc1ncc2ccc(C(=O)Nc3ccsc3C(F)(F)F)n2n1` [Example 88, 2-{[(1R,2S)-2-aminocyclohexyl]amino}-N-[2-(trifluoromethyl)thiophen-3-yl]pyrrolo[2,1-f][1,2,4]triazine-7-carboxamide trifluoroacetate] yielded an IC50 of 58 nM. For the compound `N[C@@H]1[C@H](Nc2ncc3ccc(C(=O)Nc4cscc4Cl)n3n2)CCCC1(F)F` [Example 126, 2-{[(1R,2R)-2-amino-3,3-difluorocyclohexyl]amino}-N-(4-chlorothiophen-3-yl)pyrrolo[2,1-f][1,2,4]triazine-7-carboxamide trifluoroacetate], the midpoint of inhibition, the IC50, lay at 1270 nM.
